# Test results as given in US12458624B2, “Deuterium-enriched substituted phenoxyphenyl acetic acids and acylsulfonamides” (priority 2019, dated 2025).
# Assays:
# [1] = tested on: canine model of renovascular hypertension; details: J. Hypertens. 1998, 16, 835-841; cited from earlier work
# rat prostate = test: In situ rat prostate, ET-1 induced contraction; assay type: in vivo, Sprague-Dawley rats; details: ET-1 0.3 nmoles/kg intra-arterial; antagonist IA five minutes before third ET-1 injection
# Procedure: Male Sprague-Dawley rats weighing 300-400 grams are anesthetized with urethane (1.75 g/kg, ip), a tracheal cannula is inserted, and the femoral artery is cannulated. Core body temperature is maintained at 37° C. A 4-5 cm midline abdominal incision is made to expose the bladder and prostate. The prostate is separated from the bladder and surrounding capsule by blunt dissection with a forcep. A length of surgical silk is gently secured around the anterior tips of the prostate lobes. A second length of surgical silk attached to an atraumatic needle is passed through and tied to the base of the prostate approximately 10-12 mm posterior to the first tie. The posterior ligature is secured to an anchor post whereas the anterior ligature is connected to a Grass FT03 transducer and maintained at a tension of 1 g. Signals from the transducer are amplified and recorded on a polygraph (Hewlett-Packard 8805B amplifiers and 7758 recorder, Palo Alto, CA). After equilibrating for over 15 min, the rats are administered pretreatment drugs (atropine 1 mg/kg, (+) propranolol 1 mg/kg) 10 min apart through the intra-arterial (IA) cannula. […] The response of the prostate to ET-1 is quantified by measuring the change from baseline tension to the peak of the response during the five-minute period after the third ET-1 injection. […]
# male mongrel dogs = test: Endothelin-1-induced changes in diastolic and urethral pressures in the anesthetized male dog; assay type: in vivo
# Procedure: Methodology for Determining Whether an ET-1 Receptor Selective Antagonist could Inhibit the ET-1 Mediated Prostatic Urethral Contractions in a Mongrel Dog Model:
# On separate days, two fasted male mongrel dogs (from commercial suppliers) weighing 11.0 and 12.4 kilograms (kg), are anesthetized with sodium pentobarbital at 35 mg/kg (i.v.) to effect, followed by 4 mg/kg/hr (i.v.) infusion. A cuffed endotracheal tube is inserted and each animal is ventilated with room air using a positive displacement large animal ventilator at a rate of 18 breaths/minute and an average tidal volume of 18 mL/kg body weight. Body temperature is maintained with a heating pad and heat lamp using a temperature controller and esophageal probe. Two catheters are placed in the aorta via the femoral arteries (one in each artery) for administration of endothelin or phenylephrine and for continuous direct monitoring of blood pressure and heart rate using a Statham blood pressure transducer (Spectramed) and a computer system (Modukar Instruments, Inc.). Two other catheters are placed in the vena cava via the femoral veins (one catheters in each vein) for administration of pentobarbital and N-(4-isopropyl (d7)-benzenesulfonyl)-α-(4-carboxy-2-n-propylphenoxy)-3,4-methylenedioxyphenylacetamide dipotassium salt.
# A supra-pubic incision approximately one-half inch lateral to the penis is made to expose the ureters, urinary bladder, prostate, and urethra. The dome of the bladder is retracted to facilitate dissection of the ureters. The ureters are cannulated with PE 90 and tied off to the bladder. Umbilical tape is passed beneath the urethra at the bladder neck and another piece of tape is placed approximately 1-2 cm distal to the prostate. The bladder is incised and a Micro-tip catheter transducer is advanced into the urethra. The neck of the bladder is ligated with the umbilical tape to hold the transducer. The bladder incision is sutured with 3-0 silk (purse string suture). The transducer is withdrawn until it is positioned in the prostatic urethra. The position of the Micro-tip catheter is verified by gently squeezing the prostate and noting the large change in urethral pressure prior to ligating the distal urethra.
# Phenylephrine (10 μg/kg, intra-arterial) is administered and pressor effects on diastolic blood pressure (DBP) and intra-urethral pressure (IUP) is noted. When blood pressure returned to baseline, endothelin-1 (1 nmole/kg, intra-arterial) is administered. Changes in DBP and IUP are monitored for one hour and an ET-1 selective endothelin antagonist, such as the deuterated compound, N-(4-isopropyl(d7)benzenesulfonyl)-α-(4-carboxy-2-n-propylphenoxy)-3,4-methylenedioxyphenyl-acetamide dipotassium salt (30 mg/kg, intra-venous), is administered. […] Phenylephrine is administered at the end of experiment to verify specificity for ET-1 blockade. The dogs are euthanized with an overdose of pentobarbital followed by saturated KCl.
# The drugs utilized in the experiment described above are: • (1) Phenylephrine, HCl (PE) (Sigma Chemical Co.) is given at a volume of 0.05 mL/kg; • (2) Endothelin-1 (ET-1) (Human, Porcine, Canine, rat, Mouse, Bovine) is given at a volume of 0.05 mL/kg; • (3) ET-1 selective antagonist, such as the deuterated compound N-(4-isopropyl(d7)benzenesulfonyl)-α-(4-carboxy-2-n-propyl-[…]phenoxy)-3,4-methylenedioxyphenyl-acetamide dipotassium salt, is given at a volume of 0.3 mL/kg. • All drugs are dissolved in isotonic saline solution.
# [2] = 30 mg/kg i.v., ET-1 1 nmole/kg intra-arterial challenge ten to 15 minutes after administration
# [3] = PE 10 μg/kg intra-arterial after antagonist 30 mg/kg i.v., one dog
# [4] = ET-1 1 nmole/kg intra-arterial, before antagonist, average
smiles,measurement,setting,value
CCCCc1nc(Cl)c(CO)n1Cc1ccc(-c2ccccc2-c2nn[nH]n2)cc1 [Losartan],reduction in mean arterial blood pressure,[1],20 mmHg
"[2H]C([2H])([2H])C([2H])(c1ccc(S(=O)(=O)NC(=O)C(Oc2ccc(C(=O)[O-])cc2CCC)c2ccc3c(c2)OCO3)cc1)C([2H])([2H])[2H].[2H]C([2H])([2H])C([2H])(c1ccc(S(=O)(=O)NC(=O)C(Oc2ccc(C(=O)[O-])cc2CCC)c2ccc3c(c2)OCO3)cc1)C([2H])([2H])[2H].[K+].[K+] (stereo not drawn) [N-(4-isopropyl(d7)benzenesulfonyl)-α-(4-carboxy-2-n-propylphenoxy)-3,4-methylenedioxyphenylacetamide Dipotassium Salt]",effect on ET-1 contraction of the prostate,rat prostate,specific inhibition
same,inhibition of ET-1 depressor effect on DBP,male mongrel dogs; [2],70%
same,inhibition of ET-1 pressor effect on DBP,male mongrel dogs; [2],75%
same,inhibition of ET-1 pressor effect on IUP,male mongrel dogs; [2],94%
same,inhibition of phenylephrine-induced increase in DBP,male mongrel dogs; [3],33%
same,inhibition of phenylephrine-induced increase in IUP,male mongrel dogs; [3],11%
same,hemodynamic and prostatic urethral responses to ET-1,male mongrel dogs; anesthetized dogs,specifically inhibited
same,change of intra-arterial phenylephrine-induced increases in DBP and IUP after administration,"male mongrel dogs; one dog, specificity check",did not change significantly
"CC[C@H](C)[C@H](NC(=O)[C@H](CC(=O)O)NC(=O)[C@H](CC(C)C)NC(=O)[C@H](Cc1c[nH]cn1)NC(=O)[C@@H]1CSSC[C@H](N)C(=O)N[C@@H](CO)C(=O)N[C@H]2CSSC[C@H](NC(=O)[C@H](CCC(=O)O)NC(=O)[C@H](CCCCN)NC(=O)[C@H](CC(=O)O)NC(=O)[C@H](CCSC)NC(=O)[C@H](CC(C)C)NC(=O)[C@H](CO)NC(=O)[C@H](CO)NC2=O)C(=O)N[C@@H](C(C)C)C(=O)N[C@@H](Cc2ccc(O)cc2)C(=O)N[C@@H](Cc2ccccc2)C(=O)N1)C(=O)N[C@H](C(=O)N[C@@H](Cc1c[nH]c2ccccc12)C(=O)O)[C@@H](C)CC [ET-1, reference compound]",increase in IUP,male mongrel dogs; [4],15 mmHg
same,peak pressor effect on DBP,male mongrel dogs; [4],25 mmHg
same,decrease in DBP (initial depressor effect),"male mongrel dogs; ET-1 1 nmole/kg intra-arterial, before antagonist, average of both dogs",15 mmHg
